This note sets out measurements from PubChem BioAssay AID256 (DTP/NCI, 2004).

“And” between values parts separate entries of the source, which are not always exact repeats. Identical values can stand only once. Toxic doses and inconclusive results are not listed. Starred links: 1 amine or outer side, 2 acyl side, 3 side chain; linkers in the order of their positions; H or OH if unused. Positions of bridges follow the written chain, without caps; N, C: chain ends. Non-standard residues stand in square brackets, D forms with d. Residues, ends and D or L forms follow the SMILES beside them. Chains are numbered I, II in the order given. Actinocin(1to9) = Cc1c2oc3c(C)ccc(C(=O)[*:2])c3nc-2c(C(=O)[*:1])c(N)c1=O; NMeV = CN[CH](C(=O)O)C(C)C; Aze = O=C(O)[CH]1CCN1; Sar = CNCC(=O)O

This assay relates to CD2F1 mice, L1210 leukemia ip, survival T/C. Nature of the assay: NCI In Vivo Anticancer Drug Screen. Data for tumor model L1210 Leukemia (intraperitoneal) in CD2F1 (CDF1) mice. Particulars: higher = longer survival. The procedure, abridged: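 Compound-dosed mice with transplantable tumor versus matched vehicle controls; endpoint ratio T/C reported.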
[1] abbreviates: endpoint: mean survival time, dose: 100.0 mg/kg/injection, schedule: Q01DX009 (ip), vehicle: saline with Tween-80.
The mark [2] stands for this setting: endpoint: mean survival time, dose: 100.0 mg/kg/injection, schedule: Q04DX003 (ip), vehicle: saline with Tween-80.
Setting [3] is: endpoint: mean survival time, dose: 200.0 mg/kg/injection, schedule: Q01DX009 (ip), vehicle: saline with Tween-80.
The mark [4] stands for this setting: endpoint: mean survival time, dose: 200.0 mg/kg/injection, schedule: Q04DX003 (ip), vehicle: saline with Tween-80.
Setting [5] is: endpoint: mean survival time, dose: 400.0 mg/kg/injection, schedule: Q01DX009 (ip), vehicle: saline with Tween-80.
The mark [6] stands for this setting: endpoint: mean survival time, dose: 400.0 mg/kg/injection, schedule: Q04DX003 (ip), vehicle: saline with Tween-80.
Setting [7] is: endpoint: mean survival time, dose: 6.25 mg/kg/injection, schedule: Q01DX009 (ip), vehicle: saline with Tween-80.
The mark [8] stands for this setting: endpoint: mean survival time, dose: 12.5 mg/kg/injection, schedule: Q01DX009 (ip), vehicle: saline with Tween-80.
[9] abbreviates: endpoint: mean survival time, dose: 25.0 mg/kg/injection, schedule: Q01DX009 (ip), vehicle: saline with Tween-80.
[10] abbreviates: endpoint: mean survival time, dose: 50.0 mg/kg/injection, schedule: Q01DX009 (ip), vehicle: saline with Tween-80.
The mark [11] stands for this setting: endpoint: mean survival time, dose: 100.0 mg/kg/injection, schedule: Q01DX001 (ip), vehicle: saline with Tween-80.
Where [12] appears, read: endpoint: mean survival time, dose: 200.0 mg/kg/injection, schedule: Q01DX001 (ip), vehicle: saline with Tween-80.
[13] abbreviates: endpoint: mean survival time, dose: 400.0 mg/kg/injection, schedule: Q01DX001 (ip), vehicle: saline with Tween-80.

Take `Cc1c2oc3c(C)ccc(C(=O)NC4C(=O)NC(C(C)C)C(=O)N5CCCC5C(=O)N(C)CC(=O)N(C)C(C(C)C)C(=O)OC4C)c3nc-2c(C(=O)NC2C(=O)NC(C(C)C)C(=O)N3CCC3C(=O)N(C)CC(=O)N(C)C(C(C)C)C(=O)OC2C)c(N)c1=O` (centres undefined) (I: TV[Aze][Sar][NMeV] / II: TVP[Sar][NMeV]; ester I:1-I:C, II:1-II:C; linker I:N-II:N via Actinocin(1to9); configuration not given here): the T/C was 103 % of control (endpoint: mean survival time, dose: 37.0 micrograms/kg/injection, schedule: Q01DX009 (ip), vehicle: saline + alcohol); 117 % of control (endpoint: mean survival time, dose: 75.0 micrograms/kg/injection, schedule: Q01DX009 (ip), vehicle: saline + alcohol); 151 % of control (endpoint: mean survival time, dose: 300.0 micrograms/kg/injection, schedule: Q01DX009 (ip), vehicle: saline + alcohol); 109 % of control (endpoint: mean survival time, dose: 600.0 micrograms/kg/injection, schedule: Q01DX009 (ip), vehicle: saline + alcohol); 108 % of control (endpoint: median survival time, dose: 12.5 micrograms/kg/injection, schedule: Q01DX009 (ip), vehicle: saline); 115 % of control (endpoint: median survival time, dose: 25.0 micrograms/kg/injection, schedule: Q01DX009 (ip), vehicle: saline). Further, the T/C is 115 % of control (endpoint: median survival time, dose: 50.0 micrograms/kg/injection, schedule: Q01DX009 (ip), vehicle: saline); 123 % of control (endpoint: median survival time, dose: 100.0 micrograms/kg/injection, schedule: Q01DX009 (ip), vehicle: saline); 150 % of control (endpoint: median survival time, dose: 200.0 micrograms/kg/injection, schedule: Q01DX009 (ip), vehicle: saline); 91 % of control (endpoint: median survival time, dose: 400.0 micrograms/kg/injection, schedule: Q01DX009 (ip), vehicle: saline).
Regarding `COc1ccc2nc(C(C)O)[nH]c2c1` (centres undefined), the T/C was 89 % of control under setting [1]; 103 % of control under setting [2]; 93 % of control under setting [3]; 101 % of control under setting [4]; 89 % of control under setting [5]; 96 % of control under setting [6].
Regarding `C[CH2][Sn]1([CH2]C)[O]C2C(CO)OC(n3cnc4c(N)ncnc43)C2[O]1` (centres undefined), the T/C is, setting by setting: (endpoint: mean survival time, dose: 1.56 mg/kg/injection, schedule: Q01DX005 (ip), vehicle: other) 100 % of control; (endpoint: mean survival time, dose: 3.13 mg/kg/injection, schedule: Q01DX005 (ip), vehicle: other) 102 % of control; (endpoint: mean survival time, dose: 6.25 mg/kg/injection, schedule: Q01DX005 (ip), vehicle: other) 104 % of control; (endpoint: mean survival time, dose: 12.5 mg/kg/injection, schedule: Q01DX005 (ip), vehicle: other) 105 % of control and 106 % of control.
Take `CC1(C)CC(Br)(Cc2ccccc2)C(=O)c2ccccc21` (centres undefined): the T/C under setting [1] is 95 % of control, the T/C under setting [3] was 94 % of control and the T/C under setting [5] was 94 % of control.
For `Cc1cc(=O)n(C)c2c(C)cccc12`, the T/C is 98 % of control under setting [1], 92 % of control under setting [3] and 95 % of control under setting [5].
Turning to `Nc1ncnc2c1nc(NCc1ccccc1)n2C1OC(CO)C(O)C1O` (centres undefined), the T/C (endpoint: mean survival time, dose: 12.5 mg/kg/injection, schedule: Q01DX005 (ip), vehicle: distilled water + Tween-80) is 93 % of control; the T/C (endpoint: mean survival time, dose: 25.0 mg/kg/injection, schedule: Q01DX005 (ip), vehicle: distilled water + Tween-80) was 100 % of control and 95 % of control; the T/C (endpoint: mean survival time, dose: 50.0 mg/kg/injection, schedule: Q01DX005 (ip), vehicle: distilled water + Tween-80) is 92 % of control and 101 % of control; the T/C (endpoint: mean survival time, dose: 100.0 mg/kg/injection, schedule: Q01DX005 (ip), vehicle: distilled water + Tween-80) was 99 % of control and 93 % of control; the T/C (endpoint: mean survival time, dose: 200.0 mg/kg/injection, schedule: Q01DX005 (ip), vehicle: distilled water + Tween-80) is 99 % of control and 100 % of control; the T/C (endpoint: mean survival time, dose: 400.0 mg/kg/injection, schedule: Q01DX005 (ip), vehicle: distilled water + Tween-80) was 89 % of control.
Take `O=C(O)/C(=C/c1ccc(O)cc1)c1ccccc1`: the T/C is 88 % of control under setting [1]; 101 % of control under setting [2]; 93 % of control under setting [3]; 91 % of control under setting [4]; 87 % of control under setting [5]; 96 % of control under setting [6].
With `CN(C)N=Nc1ccc(NC(N)=O)cc1`, the T/C reads like this: under setting [7], 108 % of control; (endpoint: mean survival time, dose: 6.25 mg/kg/injection, schedule: Q01DX009 (ip), vehicle: saline) 118 % of control; under setting [8], 113 % of control; (endpoint: mean survival time, dose: 12.5 mg/kg/injection, schedule: Q01DX009 (ip), vehicle: saline) 111 % of control; under setting [9], 118 % of control; (endpoint: mean survival time, dose: 37.5 mg/kg/injection, schedule: Q01DX009 (ip), vehicle: Klucel (hydroxypropylcellulose) (HPC)) 158 % of control. Moreover, under setting [10], the T/C is 159 % of control.
Turning to `CN(C)CC(O)c1ccc(O)c(O)c1` (centres undefined), the T/C (endpoint: mean survival time, dose: 100.0 mg/kg/injection, schedule: Q04DX003 (ip), vehicle: saline) is 115 % of control; the T/C (endpoint: mean survival time, dose: 200.0 mg/kg/injection, schedule: Q04DX003 (ip), vehicle: saline) was 115 % of control; the T/C (endpoint: mean survival time, dose: 400.0 mg/kg/injection, schedule: Q04DX003 (ip), vehicle: saline) was 103 % of control.
As for `S=C(CCc1ccc2c(c1)CCCC2)N1CCOCC1`, the T/C is, setting by setting: under setting [2], 98 % of control; under setting [4], 98 % of control; under setting [6], 97 % of control.
With `CCn1c(-c2ccc(OC(C)=O)cc2)c(C)c2cc(OC(C)=O)ccc21`, the T/C is, setting by setting: (endpoint: median survival time, dose: 25.0 mg/kg/injection, schedule: Q01DX009 (ip), vehicle: Klucel (hydroxypropylcellulose) (HPC)) 107 % of control; (endpoint: median survival time, dose: 50.0 mg/kg/injection, schedule: Q01DX009 (ip), vehicle: Klucel (hydroxypropylcellulose) (HPC)) 102 % of control; (endpoint: median survival time, dose: 100.0 mg/kg/injection, schedule: Q01DX009 (ip), vehicle: Klucel (hydroxypropylcellulose) (HPC)) 96 % of control; (endpoint: median survival time, dose: 200.0 mg/kg/injection, schedule: Q01DX009 (ip), vehicle: Klucel (hydroxypropylcellulose) (HPC)) 102 % of control; (endpoint: median survival time, dose: 400.0 mg/kg/injection, schedule: Q01DX009 (ip), vehicle: Klucel (hydroxypropylcellulose) (HPC)) 90 % of control.
With `C/C=C/c1cnc(N)nc1-c1ccc(OC)cc1`, the T/C is 97 % of control under setting [11], 94 % of control under setting [12] and 97 % of control under setting [13].
As to `C(=N\Nc1ccccc1)/c1ccc2c(c1)OCO2`, the T/C runs as follows: under setting [11], 100 % of control; under setting [1], 97 % of control; under setting [12], 101 % of control; under setting [3], 104 % of control; under setting [13], 95 % of control; under setting [5], 100 % of control.
On to `CCOC(OCC)c1cc(-c2cnc(N)nc2N)cc(Cl)c1Cl`, for which the T/C reads like this: under setting [11], 98 % of control; under setting [12], 97 % of control; under setting [13], 97 % of control.
In the case of `O=[P+](O)O[P+](=O)O.O=[P+](O)O[P+](=O)O.O=[P+](O)O[P+](=O)O.O=[P+](O)O[P+](=O)O.[Pt].[Pt]`, the T/C is 98 % of control (endpoint: median survival time, dose: 3.12 mg/kg/injection, schedule: Q04DX003 (ip), vehicle: saline); 98 % of control (endpoint: median survival time, dose: 6.25 mg/kg/injection, schedule: Q04DX003 (ip), vehicle: saline); 96 % of control (endpoint: median survival time, dose: 12.5 mg/kg/injection, schedule: Q04DX003 (ip), vehicle: saline); 98 % of control (endpoint: median survival time, dose: 25.0 mg/kg/injection, schedule: Q04DX003 (ip), vehicle: saline); 105 % of control (endpoint: median survival time, dose: 50.0 mg/kg/injection, schedule: Q04DX003 (ip), vehicle: saline).
`Nc1ccc(-c2ccccc2-c2ccccc2)cc1`: the T/C was 101 % of control (endpoint: mean survival time, dose: 100.0 mg/kg/injection, schedule: Q01DX009 (ip), vehicle: acetone) and 105 % of control (endpoint: mean survival time, dose: 200.0 mg/kg/injection, schedule: Q01DX009 (ip), vehicle: acetone).
In the case of `Nc1[nH]c(=O)ncc1C(=O)NC(CO)C(=O)O` (centres undefined), the T/C under setting [7] was 100 % of control, the T/C under setting [8] was 102 % of control and the T/C under setting [9] is 104 % of control.
Consider `Cc1cc(I)cs1`, for which the T/C is, setting by setting: (endpoint: mean survival time, dose: 100.0 mg/kg/injection, schedule: Q01DX001 (ip), vehicle: saline) 108 % of control; (endpoint: mean survival time, dose: 200.0 mg/kg/injection, schedule: Q01DX001 (ip), vehicle: saline) 102 % of control.
Take `OCCOCC(F)(F)F`: the T/C is 100 % of control under setting [7]; 90 % of control and 112 % of control under setting [8]; 95 % of control and 102 % of control under setting [9]; 94 % of control and 100 % of control under setting [10]; 94 % of control and 100 % of control under setting [1]; 94 % of control and 110 % of control under setting [3].
As to `O=[N+]([O-])c1ccc(/C=C2/c3ccccc3-c3nc4ccccc4cc32)cc1`, the T/C is 93 % of control under setting [11], 87 % of control under setting [12] and 93 % of control under setting [13].
